Measured values reported in patent publication US20070142389A1, “PIPERIDINE DERIVATIVES” (PFIZER INC., priority 2005, published 2007).

Tests used:
[1] = target: T1, human norepinephrine transporter (Homo sapiens, UniProt P23975); test: hNET Receptor Binding ([125I]-RTI-55 displacement, HEK-293 membranes); details: hNET, HEK-293 cell membranes, 50 pM [125I]-RTI-55, Ki from IC50 by Cheng-Prusoff; read-out: NET Ki
T1 construct: expressed in transfected cells; host or cells: HEK-293
Protocol: (§1) Cell pastes of HEK-293 cells transfected with a human norepinephrine transporter cDNA were prepared. The cell pastes were resuspended in 400 to 700 mL of Krebs-HEPES assay buffer (25 mM HEPES, 122 mM NaCl, 3 mM KCl, 1.2 mM MgSO4, 1.3 mM CaCl2, and 11 mM glucose, pH 7.4) with a Polytron homogenizer at setting 7 for 30 seconds. Aliquots of membranes (5 mg/mL protein) were stored in liquid nitrogen until used.
The binding assay was set up in Beckman deep-well polypropylene plates with a total volume of 250 μL containing: compound of one of the Examples (10^−5M to 10^−12M), cell membranes, and 50 pM [^125I]-RTI-55 (Perkin Elmer, NEX-272; specific activity 2200 Ci/mmol). The reaction was incubated by gentle agitation for 90 minutes at room temperature and was terminated by filtration through Whatman GF/C filter plates using a Brandel 96-well plate harvester. Scintillation fluid (100 μL) was added to each well, and bound [^125I]-RTI-55 was determined using a Wallac Trilux Beta Plate Counter. Test compounds were run in duplicate, and specific binding was defined as the difference between binding in the presence and absence of 10 μM desipramine.
(§2) Excel and GraphPad Prism software were used for data calculation and analysis. IC50 values were converted to Ki values using the Cheng-Prusoff equation.

[2] = target: T2, human serotonin transporter (Homo sapiens, UniProt P31645); test: hSERT Receptor Binding ([125I]-RTI-55 displacement, HEK-293 membranes); details: hSERT, HEK-293 cell membranes, 50 pM [125I]-RTI-55, Ki from IC50 by Cheng-Prusoff; read-out: SERT Ki
T2 construct: expressed in transfected cells; host or cells: HEK-293
T2 sequence (P31645 whole entry): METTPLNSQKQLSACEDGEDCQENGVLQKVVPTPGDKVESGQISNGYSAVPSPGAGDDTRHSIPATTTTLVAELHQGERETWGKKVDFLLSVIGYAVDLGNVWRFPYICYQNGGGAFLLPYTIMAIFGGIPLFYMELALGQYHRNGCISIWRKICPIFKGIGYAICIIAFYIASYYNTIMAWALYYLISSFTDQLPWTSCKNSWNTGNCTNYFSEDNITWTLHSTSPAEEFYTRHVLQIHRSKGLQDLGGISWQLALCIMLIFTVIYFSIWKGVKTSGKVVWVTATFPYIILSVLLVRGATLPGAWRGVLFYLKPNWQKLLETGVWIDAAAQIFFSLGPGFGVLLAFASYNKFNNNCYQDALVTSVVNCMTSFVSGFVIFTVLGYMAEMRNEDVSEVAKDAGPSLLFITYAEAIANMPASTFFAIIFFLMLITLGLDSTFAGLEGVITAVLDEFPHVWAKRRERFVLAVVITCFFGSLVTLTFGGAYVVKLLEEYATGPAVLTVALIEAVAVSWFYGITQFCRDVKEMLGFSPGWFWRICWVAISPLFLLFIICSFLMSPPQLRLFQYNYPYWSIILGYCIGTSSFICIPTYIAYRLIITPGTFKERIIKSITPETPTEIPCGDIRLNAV
Protocol: as §1, with “serotonin” for “norepinephrine”, “Setting” for “setting”, “(about 2.5” for “(5”
Assays were set up in FlashPlates pre-coated with 0.1 % PEI in a total volume of 250 μL containing: compound of one of the Examples (10^−5M to 10^−12M), cell membanes, and 50 pM [^125l]-RTI-55 (Perkin Elmer, NEX-272; specific activity 2200 Ci/mmol). The reaction was incubated and gently agitated for 90 minutes at room temperature, and terminated by removal of assay volume. Plates were covered, and bound [^125I]-RTI-55 was determined using a Wallac Trilux Beta Plate Counter. Test compounds were run in duplicate, and specific binding was defined as the difference between binding in the presence and absence of 10 μM citalopram.
as §2

T1 sequence (P23975 whole entry): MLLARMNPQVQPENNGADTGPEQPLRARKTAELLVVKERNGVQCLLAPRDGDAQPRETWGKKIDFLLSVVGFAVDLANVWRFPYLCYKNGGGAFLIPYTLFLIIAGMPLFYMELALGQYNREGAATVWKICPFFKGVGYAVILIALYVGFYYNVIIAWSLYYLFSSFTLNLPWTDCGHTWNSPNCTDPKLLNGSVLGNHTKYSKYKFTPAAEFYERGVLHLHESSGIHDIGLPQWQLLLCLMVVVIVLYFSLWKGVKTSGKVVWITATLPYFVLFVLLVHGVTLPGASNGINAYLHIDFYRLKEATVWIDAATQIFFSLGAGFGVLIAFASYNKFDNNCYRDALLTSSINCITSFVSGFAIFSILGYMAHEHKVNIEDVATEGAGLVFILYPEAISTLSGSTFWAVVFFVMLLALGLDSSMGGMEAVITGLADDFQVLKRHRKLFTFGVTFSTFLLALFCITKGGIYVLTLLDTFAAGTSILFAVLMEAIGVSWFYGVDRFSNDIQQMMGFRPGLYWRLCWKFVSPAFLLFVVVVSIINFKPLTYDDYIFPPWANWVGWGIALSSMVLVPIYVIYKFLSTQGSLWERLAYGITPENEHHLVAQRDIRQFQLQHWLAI

| Compound | Ki [1] [nM] | Ki [2] [nM] |
| --- | --- | --- |
| FC(F)(F)c1ccc(OC[C@H]2CNCC[C@@H]2c2ccccc2)nc1 [Example 4, (3R,4S)-2-(4-Phenyl-piperidin-3-ylmethoxy)-5-trifluoromethyl-pyridine] | 1870 | 15.3 |
| Cc1ccc(OC[C@H]2CNCC[C@@H]2c2ccccc2)nc1 [Example 5, (3R,4S)-5-Methyl-2-(4-phenyl-piperidin-3-ylmethoxy)-pyridine] | 2620 | 2.29 |
| COc1ncccc1OC[C@H]1CNCC[C@@H]1c1ccccc1 [Example 6, (3R,4S)-2-Methoxy-3-(4-phenyl-piperidin-3-ylmethoxy)-pyridine] | 3480 | 0.52 |
| CCCOc1ncccc1OC[C@H]1CNCC[C@@H]1c1ccccc1 [Example 8, (3R,4S)-3-(4-Phenyl-piperidin-3-ylmethoxy)-2-propoxy-pyridine] | 1330 | 17 |
| COCCOc1ncccc1OC[C@H]1CNCC[C@@H]1c1ccccc1 [Example 10, (3R,4S)-2-(2-Methoxy-ethoxy)-3-(4-phenyl-piperidin-3-ylmethoxy)-pyridine] | 6260 | 18.5 |
| Cn1nc(OC[C@H]2CNCC[C@@H]2c2ccccc2)cc1C(F)(F)F [Example 13, (3R,4S)-3-(1-Methyl-5-trifluoromethyl-1 H-pyrazol-3-yloxymethyl)-4-phenyl-piperidine] | 612 | 2.69 |
| CC(C)COc1ncccc1OC[C@@H]1CNCC[C@H]1c1ccccc1 [Example 15, (3S,4R)-2-lsobutoxy-3-(4-phenyl-piperidin-3-ylmethoxy)-pyridine] | 4.9 | 20.7 |
| c1ccc([C@@H]2CCNC[C@H]2COc2cccnc2OC2CCOCC2)cc1 [Example 16, (3S,4R)-3-(4-Phenyl-piperidin-3-ylmethoxy)-2-(tetrahydro-pyran-4-yloxy)-pyridine] | 293 | 680 |
| FC(F)(F)c1ccc(OC[C@@H]2CNCC[C@H]2c2ccccc2)nc1 [Example 19, (3S,4R)-2-(4-Phenyl-piperidin-3-ylmethoxy)-5-trifluoromethyl-pyridine] | 144 | 29.1 |
| Cc1ccc(OC[C@@H]2CNCC[C@H]2c2ccccc2)nc1 [Example 20, (3S,4R)-5-Methyl-2-(4-phenyl-piperidin-3-ylmethoxy)-pyridine] | 157 | 3.14 |
| Cn1nc(C(F)(F)F)cc1OC[C@@H]1CNCC[C@H]1c1ccccc1 [Example 21, (3S,4R)-3-(2-Methyl-5-trifluoromethyl-2H-pyrazol-3-yloxymethyl)-4-phenyl-piperidine] | 1260 | 63.8 |
| Cc1ccc(OC[C@@H]2CNCC[C@H]2c2ccccc2)cn1 [Example 22, (3S,4R)-2-Methyl-5-(4-phenyl-piperidin-3-ylmethoxy)-pyridine] | 263 | 3.47 |
| COCc1cc(OC[C@@H]2CNCC[C@H]2c2ccccc2)[nH]n1 [Example 23, (3S,4R)-3-(5-Methoxymethyl-2H-pyrazol-3-yloxymethyl)-4-phenyl-piperidine] | 1520 | 1390 |
| Cn1nc(OC[C@@H]2CNCC[C@H]2c2ccccc2)cc1C(F)(F)F [Example 24, (3S,4R)-3-(1-Methyl-5-trifluoromethyl-1 H-pyrazol-3-yloxymethyl)-4-phenyl-piperidine] | 519 | 87.7 |
| N#Cc1cccc(OC[C@@H]2CNCC[C@H]2c2ccccc2)c1 [Example 25, (3S,4R)-3-(4-Phenyl-piperidin-3-ylmethoxy)-benzonitrile] | 107 | 2.49 |
| N#Cc1ccc(OC[C@@H]2CNCC[C@H]2c2ccccc2)cc1 [Example 26, (3S,4R)-4-(4-Phenyl-piperidin-3-ylmethoxy)-benzonitrile] | 73.3 | 21.5 |
| CC(C)c1cc(C(N)=O)cc(C(C)C)c1OC[C@@H]1CNCC[C@H]1c1ccccc1 [Example 27, (3S,4R)-3,5-Diisopropyl-4-(4-phenyl-piperidin-3-ylmethoxy)-benzamide] | ≥ 10000 | 5230 |
| Cc1nccnc1OC[C@@H]1CNCC[C@H]1c1ccccc1 [Example 28, (3S,4R)-2-Methyl-3-(4-phenyl-piperidin-3-ylmethoxy)-pyrazine] | 6380 | 2130 |
| CNC(=O)c1ccc(OC[C@@H]2CNCC[C@H]2c2ccccc2)cc1 [Example 29, (3S,4R)-N-Methyl-4-(4-phenyl-piperidin-3-ylmethoxy)-benzamide] | 309 | 967 |
| CNC(=O)c1ccc(OC[C@@H]2CNCC[C@H]2c2ccccc2)c(OC)c1 [Example 30, (3S,4R)-3-Methoxy-N-methyl-4-(4-phenyl-piperidin-3-ylmethoxy)-benzamide] | 534 | 333 |

Next, values leading:

| Ki [1] [nM] | Ki [2] [nM] | Compound |
| --- | --- | --- |
| 102 | 890 | COCc1ncccc1OC[C@@H]1CNCC[C@H]1c1ccccc1 [Example 31, (3S,4R)-2-Methoxymethyl-3-(4-phenyl-piperidin-3-ylmethoxy)-pyridine] |
| 2940 | 861 | CN(C)C(=O)c1ccc(OC[C@@H]2CNCC[C@H]2c2ccccc2)cc1 [Example 32, (3S,4R)-N,N-Dimethyl-4-(4-phenyl-piperidin-3-ylmethoxy)-benzamide] |
| 8.6 | 18.1 | NC(=O)c1ccc(OC[C@@H]2CNCC[C@H]2c2ccccc2)c(Cl)c1 [Example 33, (3S,4R)-3—CHloro-4-(4-phenyl-piperidin-3-ylmethoxy)-benzamide] |
| 1440 | 3500 | Cc1cc(C(N)=O)cc(C)c1OC[C@@H]1CNCC[C@H]1c1ccccc1 [Example 34, (3S,4R)-3,5-Dimethyl-4-(4-phenyl-piperidin-3-ylmethoxy)-benzamide] |
| 101 | 13.7 | COc1cc(C#N)ccc1OC[C@@H]1CNCC[C@H]1c1ccccc1 [Example 36, (3S,4R) 3-Methoxy-4-(4-phenyl-piperidin-3-ylmethoxy)-benzonitrile] |
| 1030 | 431 | NC(=O)c1cc(Cl)ccc1OC[C@@H]1CNCC[C@H]1c1ccccc1 [Example 37, (3S,4R)-5—CHloro-2-(4-phenyl-piperidin-3-ylmethoxy)-benzamide] |
| 146 | 732 | NC(=O)c1ncccc1OC[C@@H]1CNCC[C@H]1c1ccccc1 [Example 39, (3S,4R)-3-(4-Phenyl-piperidin-3-ylmethoxy)-pyridine-2-carboxylic acid amide] |
| 751 | 5680 | CS(=O)(=O)c1ccccc1OC[C@@H]1CNCC[C@H]1c1ccccc1 [Example 40, (−)-(3S,4R)-3-(2-Methanesulfonyl-phenoxymethyl)-4-phenyl-piperidine] |
| 3.88 | 2.67 | COc1cccc(F)c1OC[C@@H]1CNCC[C@H]1c1ccccc1 [Example 41, (3S,4R)-3-(2-Fluoro-6-methoxy-phenoxymethyl)-4-phenyl-piperidine] |
| 1.7 | 626 | N#Cc1ccccc1OC[C@@H]1CNCC[C@H]1c1ccccc1 [Example 42, (3S, 4R)-2-(4-Phenyl-piperidin-3-ylmethoxy)-benzonitrile] |
| 14.4 | 89.7 | CCOc1cccnc1OC[C@@H]1CNCC[C@H]1c1ccccc1 [Example 43, (3S,4R)-3-Ethoxy-2-(4-phenyl-piperidin-3-ylmethoxy)-pyridine] |
